Measurements published in ChEMBL document CHEMBL1201862, “PubChem BioAssay data set” (2004).
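Compound exposure: 48 hours, 5 concentrations, 96-well plates. Abbreviation: GI50, concentration required for 50% inhibition of growth.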 The source made the active and inactive calls. No stated cut-off is given here; in the data, active = GI50 up to about 1.1 µM and inactive = higher.

Tests used:
Experiment in all cases: inhibition of tumour cell growth, NCI panel, 48 h
[1] = test system: A498
[2] = test system: A549
[3] = test system: ACHN
[4] = test system: CCRF-CEM
[5] = test system: COLO 205
[6] = test system: DLD-1
[7] = test system: DMS-114
[8] = test system: DMS-273
[9] = test system: EKVX
[10] = test system: HCT-116
[11] = test system: HCT-15
[12] = test system: HL-60
[13] = test system: HOP-18
[14] = test system: HOP-62
[15] = test system: HOP-92
[16] = test system: HT-29
[17] = test system: IGROV-1
[18] = test system: K562
[19] = test system: KM-20L2
[20] = test system: KM12
[21] = test system: LOX IMVI
[22] = test system: LXFL 529
[23] = test system: M14
[24] = test system: M19-MEL
[25] = test system: MOLT-4
[26] = test system: Malme-3M
[27] = test system: NCI-H226
[28] = test system: NCI-H23
[29] = test system: NCI-H460
[30] = test system: NCI-H522
[31] = test system: OVCAR-3
[32] = test system: OVCAR-4
[33] = test system: OVCAR-5
[34] = test system: OVCAR-8
[35] = test system: RPMI-8226
[36] = test system: RXF 393
[37] = test system: SF-268
[38] = test system: SF-295
[39] = test system: SF-539
[40] = test system: SK-MEL-28
[41] = test system: SK-MEL-2
[42] = test system: SK-OV-3
[43] = test system: SN12C
[44] = test system: SNB-19
[45] = test system: SNB-78
[46] = test system: SR
[47] = test system: SW-620
[48] = test system: TK-10
[49] = test system: U-251
[50] = test system: UACC-257
[51] = test system: UO-31
[52] = test system: XF498
[53] = test system: 786-0
[54] = test system: CAKI-1
[55] = test system: HCC 2998
[56] = test system: SK-MEL-5
[57] = test system: SNB-75
[58] = test system: UACC-62

With `N#CCCOCN(CO)c1nc(N(CO)COCCC#N)nc(N(CO)COCCC#N)n1` the GI50 [1] was > 100 µM (inactive), the GI50 [2] was 26.1 µM (inactive) and the GI50 [3] was 28.6 µM (inactive). The GI50 [4] was 23.6 µM (inactive), the GI50 [5] was 18.4 µM (inactive) and the GI50 [6] was 26.7 µM (inactive). The GI50 [7] was 24.3 µM (inactive), the GI50 [8] was 18.7 µM (inactive) and the GI50 [9] was 31.2 µM (inactive). For the same compound, the GI50 [10] was 25.7 µM (inactive), the GI50 [11] was 18.2 µM and the GI50 [12] was 17.7 µM (inactive). The GI50 [13] was 24.3 µM (inactive), the GI50 [14] was > 100 µM (inactive) and the GI50 [15] was 23.4 µM (inactive). For the same compound, the GI50 [16] was 29.1 µM (inactive), the GI50 [17] was > 100 µM (inactive) and the GI50 [18] was 25 µM (inactive). The GI50 [19] was 25.9 µM (inactive), the GI50 [20] was 33 µM (inactive) and the GI50 [21] was 31.8 µM (inactive). The GI50 [22] was 17 µM (inactive), the GI50 [23] was 21 µM (inactive) and the GI50 [24] was 23.8 µM (inactive). For the same compound, the GI50 [25] was 21.9 µM (inactive), the GI50 [26] was 24.9 µM (inactive) and the GI50 [27] was 22.7 µM (inactive). The GI50 [28] was 31.2 µM (inactive), the GI50 [29] was 29.7 µM (inactive) and the GI50 [30] was 22.3 µM (inactive). For the same compound, the GI50 [31] was 25.7 µM (inactive), the GI50 [32] was 26.9 µM (inactive) and the GI50 [33] was 35.2 µM (inactive). For the same compound, the GI50 [34] was 15.8 µM (inactive), the GI50 [35] was 22.5 µM (inactive) and the GI50 [36] was 20.9 µM (inactive). The GI50 [37] was 23.1 µM (inactive), the GI50 [38] was 21.7 µM (inactive) and the GI50 [39] was 2.5 µM (inactive). For the same compound, the GI50 [40] was 20.7 µM (inactive), the GI50 [41] was 19 µM (inactive) and the GI50 [42] was > 100 µM (inactive). The GI50 [43] was 20.4 µM (inactive), the GI50 [44] was 53.6 µM (inactive) and the GI50 [45] was 79.4 µM (inactive). The GI50 [46] was 17.3 µM (inactive), the GI50 [47] was 16.1 µM (inactive) and the GI50 [48] was 34 µM (inactive). The GI50 [49] was > 100 µM (inactive), the GI50 [50] was 28 µM (inactive) and the GI50 [51] was 21.7 µM (inactive). The GI50 [52] was 17.5 µM (inactive).
With `CCOc1ccccc1Nc1nc(C)c(C(=O)CC(=O)C(=O)Nc2ccccc2)s1` the GI50 [53] was 99.8 µM (inactive), the GI50 [1] was 88.5 µM (inactive) and the GI50 [2] was 62.8 µM (inactive). The GI50 [3] was 37.8 µM (inactive), the GI50 [54] was 47.8 µM (inactive) and the GI50 [4] was 39.1 µM (inactive). The GI50 [5] was 49.3 µM (inactive), the GI50 [6] was 37.3 µM (inactive) and the GI50 [7] was 35.5 µM (inactive). The GI50 [8] was 54.2 µM (inactive), the GI50 [9] was 42.4 µM (inactive) and the GI50 [55] was 52.7 µM (inactive). For the same compound, the GI50 [10] was 51.8 µM (inactive), the GI50 [11] was 41.9 µM and the GI50 [12] was 20.3 µM (inactive). The GI50 [13] was > 100 µM (inactive), the GI50 [14] was > 100 µM (inactive) and the GI50 [15] was 36.6 µM (inactive). The GI50 [16] was 37.1 µM (inactive), the GI50 [17] was > 100 µM (inactive) and the GI50 [18] was 34.8 µM (inactive). The GI50 [19] was 66.4 µM (inactive), the GI50 [20] was 45.6 µM (inactive) and the GI50 [21] was 40.7 µM (inactive). For the same compound, the GI50 [22] was 43.3 µM (inactive), the GI50 [23] was > 100 µM (inactive) and the GI50 [24] was 36.5 µM (inactive). The GI50 [25] was 23.8 µM (inactive), the GI50 [26] was > 100 µM (inactive) and the GI50 [27] was 24.3 µM (inactive). The GI50 [28] was 36.2 µM (inactive), the GI50 [29] was 49.7 µM (inactive) and the GI50 [30] was 30.9 µM (inactive). For the same compound, the GI50 [31] was 22.2 µM (inactive), the GI50 [32] was 11 µM (inactive) and the GI50 [33] was > 100 µM (inactive). The GI50 [34] was 78.9 µM (inactive), the GI50 [36] was 99.1 µM (inactive) and the GI50 [37] was > 100 µM (inactive). The GI50 [38] was 54.1 µM (inactive), the GI50 [39] was > 100 µM (inactive) and the GI50 [40] was > 100 µM (inactive). For the same compound, the GI50 [41] was 37.3 µM (inactive), the GI50 [56] was 49.2 µM (inactive) and the GI50 [42] was > 100 µM (inactive). For the same compound, the GI50 [43] was 34.8 µM (inactive), the GI50 [44] was 91.8 µM (inactive) and the GI50 [57] was 25.2 µM (inactive). The GI50 [45] was > 100 µM (inactive), the GI50 [46] was 49.7 µM (inactive) and the GI50 [47] was 72.4 µM (inactive). The GI50 [48] was 73.8 µM (inactive), the GI50 [49] was 36.6 µM (inactive) and the GI50 [50] was 50.9 µM (inactive). The GI50 [58] was 37.9 µM (inactive), the GI50 [51] was 32.2 µM (inactive) and the GI50 [52] was 31.6 µM (inactive).
